Measurements reported in patent US20250127168A1, “METHOD FOR PATHOGENS, MICROORGANISMS, AND PARASITES INACTIVATION” (New York Blood Center, Inc., priority 2018, published 2025).

What was measured:
[1] = tested on: Human respiratory syncytial virus (RSV); assay: Viral inactivation, modified plaque assay; format: cell-based; settings: 100 μM, RT
Method: Human respiratory syncytial virus (RSV) was inactivated by using Compound VI or Compound X. For that purpose, sucrose gradient-purified virus was treated with 100 μM of Compound VI and Compound X at RT. […] The virus titers were determined using standard 10× serial dilutions in a modified plaque assay. For mock-treated virus no significant changes in RSV infectivity were found even after 6 h incubation at RT (in different experiments, the reduction of titers were in the range of 0.11-0.36 Login PFU/mL).
Inactivation of RSV with different concentrations of Compound XVI at RT and 40° C. was performed as described in Example 9.

[2] = tested on: porcine parvovirus (PPV); assay: Viral inactivation in RS, endpoint dilution assay; format: cell-based; settings: 100 μM, RT
Method: The porcine parvovirus (PPV) was inactivated by using compound VI and compound X. Treatments were conducted in RS (pH 6.9) at RT with 100 μM using compound VI and compound X and 10% virus spike. Residual compounds were quenched by incubation with 10 mM Na2S2O3 for 2 hours at RT. Virus titers, expressed as Log10TCID50/mL, were determined using the standard endpoint dilution assay with permissive to PPV porcine testis cells. After the incubation of indicator cells for 6 days, infected wells were counted under microscope by visual inspection. To confirm the results, secondary infection using conditioned media from the first plate wells as samples was conducted.

[3] = biological target: T1, RSV's fusion (F) protein (Human respiratory syncytial virus A, UniProt P03420); assay: Anti-F antibody binding to treated RSV (ELISA); settings: 100 μM, 4 hours at 40° C.
T1 construct: Sucrose gradient-purified RSV was treated with compound VI and compound X; host or cells: sucrose gradient-purified RSV virions
T1 sequence (P03420 137-574): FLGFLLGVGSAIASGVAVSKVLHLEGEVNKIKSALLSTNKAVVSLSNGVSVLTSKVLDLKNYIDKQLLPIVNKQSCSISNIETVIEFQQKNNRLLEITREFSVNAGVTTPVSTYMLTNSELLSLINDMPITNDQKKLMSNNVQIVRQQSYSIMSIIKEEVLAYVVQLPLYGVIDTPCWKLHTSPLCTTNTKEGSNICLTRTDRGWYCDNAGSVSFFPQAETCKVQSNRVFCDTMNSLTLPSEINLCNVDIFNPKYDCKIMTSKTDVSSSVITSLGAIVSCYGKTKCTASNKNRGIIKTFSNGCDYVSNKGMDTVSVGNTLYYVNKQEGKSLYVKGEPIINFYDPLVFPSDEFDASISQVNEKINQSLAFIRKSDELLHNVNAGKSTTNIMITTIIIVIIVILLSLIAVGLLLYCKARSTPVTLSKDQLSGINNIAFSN
T1 sequence (P03420 26-109): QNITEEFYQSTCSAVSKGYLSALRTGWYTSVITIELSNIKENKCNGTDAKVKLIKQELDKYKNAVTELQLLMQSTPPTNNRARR
Method: Controls included mock-treated RSV incubated for 4 hours at 40° C. and non-treated virus kept at 4°° C. ELISA assay was performed according procedure described by Schmidt et al, J Virol. […] Eight serial 1:2 dilutions in PBS were plated (50 µl/well) in triplicates into 96-well plates, and incubated overnight at 4° C. The wells were washed with PBS and blocked with PBS/1% BSA. Anti-protein F antibody was added, and the mixture was incubated for 2 h, followed by washings and the addition of anti-mouse IgG HRP conjugate. After another round of washing, TMB substrate and sulfuric acid were added and readings were conducted using ELISA Reader SPECTRAmax PLUS (Molecular Devices,

[4] = tested on: B. cereus; assay: Bacterial inactivation in WB, LB and RBCC, growth/no growth; format: cell-based; design: key: “+” Growth; “−” No growth; settings: 6 h at RT
Method: (§1) Two G− species, Y. enterocolitica and P. fluorescens, both psychrophiles, and two G+ bacteria, S. epidermids and B. cereus, all known blood contaminants, were used in this study. All blood samples were spiked with approximately 0.1% bacterial stock suspension prepared in RS and left for equilibration at RT for 30 min. Freshly grown overnight bacterial cultures were used for each spiking. Compound VI and compound X were added to spiked blood to final concentrations of 100, 250, and 500 μM. Control samples (Ctr) received solvent only. Incubation was carried out at RT for 6 h followed by the addition of an inactivator, 100x Na thiosulfate, and additional incubation at RT for 2 h. After the incubation and quenching, aliquots were taken for serial dilutions and plate drop-counting and the bacterial growth-promoting solution (containing tryptone, peptone, yeast extract and casamino acids) was added to the remaining volumes. The growth/no growth results were confirmed by streaking agar plates.

[5] = tested on: Y. enterocolitica; assay: as above; format: cell-based; design: key: “+” Growth; “−” No growth; settings: 6 h at RT
Method: as §1

[6] = tested on: P. fluorescens; assay: as above; format: cell-based; design: key: “+” Growth; “−” No growth; settings: 6 h at RT
Method: as §1

[7] = tested on: S. epidermidis; assay: as above; format: cell-based; design: key: “+” Growth; “−” No growth; settings: 6 h at RT
Method: as §1

[8] = biological target: Cytochrome C (Equus caballus, UniProt P00004); assay: Reactivity with Cytochrome C (electrospray MS); format: biochemical; settings: 8 μM protein; 0.1, 1, 10 mM compound; pH 7.0, 40° C.; 1, 4 and 30 h
Cytochrome C, sequence (P00004 whole entry): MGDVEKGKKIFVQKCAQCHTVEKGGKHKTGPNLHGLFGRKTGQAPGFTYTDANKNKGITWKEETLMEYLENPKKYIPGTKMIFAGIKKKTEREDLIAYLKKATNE
Source text: Using alkylating molecules to inactivate pathogens in blood product has potentially harmful side effect—their reaction with proteins may create neoantigens, i.e., they may become haptens. To assess the hapten potential of the compounds of Structure I, their ability to modify Cytochrome C was studied. Cytochrome C (MW of 12384 Da) was selected as a model protein because it contains a number of amino acids with nucleophilic side chains: 19 Lys, 2 Cys, 3 Asp, 9 Glu, 3 His, and 4 Tyr, which are potential targets for alkylation by the compounds of Structure I. Cytochrome C, 0.1 mg/mL (8 μM) solution in phosphate buffered saline was incubated with 0 (control), 0.1, 1, and 10 mM of compounds VI or X at pH 7.0 for 30 h at 40° C. Aliquots of the incubation mixtures were analyzed at 1, 4 and 30 h by electrospray mass spectrometry in the positive ionization mode with direct infusion into a LCQ Advantage mass spectrometer (Thermo-Finnigan, San Jose, CA) for the formation of covalent adducts of the protein with the test compounds.

[9] = tested on: B. cereus; assay: Bacterial inactivation in Ringer's solution, colony agar plate count; format: cell-based; settings: 100 μM, RT, 1 h treatment
Method: (§2) A panel of G+F and G-bacteria were inactivated in their respective growth medium using compound VI, compound X, and compound XIV. All cells were grown in corresponding media to middle log phase, collected by centrifugation, re-suspended in Ringer's solution (RS), and treated at RT with 100 μM of compound VI, compound X, and compound XIV, which were added to the suspension as 100× concentrate in RS. Controls received RS only. At the end of the incubation, unreacted compound VI, compound X, and compound XIV were neutralized with 10 mM sodium thiophosphate during incubation at RT for 30 min. The viable cells were enumerated using serial dilutions by standard colony agar plate count. Table 1 summarizes the typical results of 1 h treatment of E. coli, P. fluorescens, Y. enterocolitica, B. cereus, S. aureus, and S. epidermidis with compound VI, compound X, and compound XIV.

[10] = tested on: Y. enterocolitica; assay: as above; format: cell-based; settings: 100 μM, RT, 1 h treatment
Method: as §2

[11] = tested on: P. fluorescens; assay: as above; format: cell-based; settings: 100 μM, RT, 1 h treatment
Method: as §2

[12] = tested on: S. aureus; assay: as above; format: cell-based; settings: 100 μM, RT, 1 h treatment
Method: as §2

[13] = row 1 h, footnote c: time points were 2, 4, and 6 h (2 h)
[14] = row 3 h, footnote c: time points were 2, 4, and 6 h (4 h)

Structure (SMILES): CN(CCCCN(C)CCCN1CC1)CCCN1CC1 [Compound VI, N^1,N^4-bis(3-(aziridin-1-yl)propyl)-N^1,N^4-dimethylbutane-1,4-diamine]
- RSV titer ([1]; incubation 6 h): below the limit of detection and BLD
- RSV titer [1, 13]: 4.52 Log10PFU/mL
- RSV titer [1, 14]: 1.89 Log10PFU/mL
- PPV titer ([2]; RS pH 6.9, incubation 1 h): 2.95 Log10TCID50/mL
- PPV titer ([2]; RS pH 6.9, incubation 3 h): 0.85 Log10TCID50/mL
- PPV titer ([2]; RS pH 6.9, incubation 6 h): below the limit of detection and BLD
- recognition of the F protein by monoclonal antibody after treatment [3]: did not change the degree of recognition of the F protein
- Growth / No growth ([4]; LB, 100 μM): −
- Growth / No growth ([4]; LB, 250 μM): −
- Growth / No growth ([4]; LB, 500 μM): −
- Growth / No growth ([4]; RBCC, 100 μM): +
- Growth / No growth ([4]; RBCC, 250 μM): −
- Growth / No growth ([4]; RBCC, 500 μM): −
- Growth / No growth ([4]; WB, 100 μM): +
- Growth / No growth ([4]; WB, 250 μM): −
- Growth / No growth ([4]; WB, 500 μM): −
- Growth / No growth ([5]; LB, 100 μM): −
- Growth / No growth ([5]; LB, 250 μM): −
- Growth / No growth ([5]; LB, 500 μM): −
- Growth / No growth ([5]; RBCC, 100 μM): −
- Growth / No growth ([5]; RBCC, 250 μM): −
- Growth / No growth ([5]; RBCC, 500 μM): −
- Growth / No growth ([5]; WB, 100 μM): −
- Growth / No growth ([5]; WB, 250 μM): −
- Growth / No growth ([5]; WB, 500 μM): −
- Growth / No growth ([6]; LB, 100 μM): −
- Growth / No growth ([6]; LB, 250 μM): −
- Growth / No growth ([6]; LB, 500 μM): −
- Growth / No growth ([6]; RBCC, 100 μM): −
- Growth / No growth ([6]; RBCC, 250 μM): −
- Growth / No growth ([6]; RBCC, 500 μM): −
- Growth / No growth ([6]; WB, 100 μM): −
- Growth / No growth ([6]; WB, 250 μM): −
- Growth / No growth ([6]; WB, 500 μM): −
- Growth / No growth ([7]; LB, 100 μM): −
- Growth / No growth ([7]; LB, 250 μM): −
- Growth / No growth ([7]; LB, 500 μM): −
- Growth / No growth ([7]; RBCC, 100 μM): −
- Growth / No growth ([7]; RBCC, 250 μM): −
- Growth / No growth ([7]; RBCC, 500 μM): −
- Growth / No growth ([7]; WB, 100 μM): −
- Growth / No growth ([7]; WB, 250 μM): −
- Growth / No growth ([7]; WB, 500 μM): −
- covalent adducts with cytochrome C [8]: absence of covalent adducts
- Titer [9]: 2.45 Log10CFU/mL
- Titer [10]: 6.72 Log10CFU/mL
- Titer [11]: 2.78 Log10CFU/mL
- Titer [12]: 7.08 Log10CFU/mL

Structure (SMILES): CN(CCCCN(C)CCCN1CC1)CCCN(C)CCCN1CC1 [Compound X]
- RSV titer ([1]; incubation 6 h): 1.95 Log10PFU/mL
- RSV titer [1, 13]: 4.95 Log10PFU/mL
- RSV titer [1, 14]: 3.48 Log10PFU/mL
- PPV titer ([2]; RS pH 6.9, incubation 1 h): 3.09 Log10TCID50/mL
- PPV titer ([2]; RS pH 6.9, incubation 3 h): 2.72 Log10TCID50/mL
- PPV titer ([2]; RS pH 6.9, incubation 6 h): 0.78 Log10TCID50/mL
- recognition of the F protein by monoclonal antibody after treatment [3]: did not change the degree of recognition of the F protein
- Growth / No growth ([4]; LB, 100 μM): −
- Growth / No growth ([4]; LB, 250 μM): −
- Growth / No growth ([4]; RBCC, 250 μM): −
- Growth / No growth ([4]; WB, 100 μM): −
- Growth / No growth ([4]; WB, 250 μM): −
- Growth / No growth ([4]; WB, 500 μM): −
- Growth / No growth ([5]; LB, 100 μM): −
- Growth / No growth ([5]; LB, 250 μM): −
- Growth / No growth ([5]; RBCC, 100 μM): −
- Growth / No growth ([5]; RBCC, 250 μM): −
- Growth / No growth ([5]; WB, 100 μM): −
- Growth / No growth ([5]; WB, 250 μM): −
- Growth / No growth ([6]; LB, 100 μM): −
- Growth / No growth ([6]; LB, 250 μM): −
- Growth / No growth ([6]; RBCC, 100 μM): −
- Growth / No growth ([6]; RBCC, 250 μM): −
- Growth / No growth ([6]; WB, 100 μM): −
- Growth / No growth ([6]; WB, 250 μM): −
- Growth / No growth ([7]; LB, 100 μM): −
- Growth / No growth ([7]; LB, 250 μM): −
- Growth / No growth ([7]; RBCC, 100 μM): −
- Growth / No growth ([7]; RBCC, 250 μM): −
- Growth / No growth ([7]; WB, 100 μM): −
- Growth / No growth ([7]; WB, 250 μM): −
- covalent adducts with cytochrome C [8]: absence of covalent adducts
- Titer [9]: ≤1.00 Log10CFU/mL
- Titer [10]: 4.85 Log10CFU/mL
- Titer [11]: ≤1.00 Log10CFU/mL
- Titer [12]: 6.70 Log10CFU/mL
